In ChEMBL document CHEMBL1147512, “Development of subtype-selective ligands as antagonists at nicotinic receptors mediating nicotine-evoked dopamine release” (Bioorg Med Chem Lett, 2004):

Experiments:
[1] = target: T1, Neuronal acetylcholine receptor subunit alpha-7 (Rattus norvegicus, UniProt Q05941); assay: Inhibition of [3H]-MLA binding to Nicotinic acetylcholine receptor alpha7 in rat brain; type: tissue-based
[2] = target: T1, Neuronal acetylcholine receptor subunit alpha-7; assay: Inhibition of [3H]-MLA binding to Nicotinic acetylcholine receptor alpha-7 in rat brain.; type: tissue-based
[3] = target: T2, Neuronal acetylcholine receptor; alpha4/beta2 (Rattus norvegicus, UniProt P09483+P12390); assay: Inhibition of [3H]nicotine binding to Nicotinic acetylcholine receptor alpha4-beta2 in rat brain.; type: tissue-based
T2 sequence (P09483 whole entry): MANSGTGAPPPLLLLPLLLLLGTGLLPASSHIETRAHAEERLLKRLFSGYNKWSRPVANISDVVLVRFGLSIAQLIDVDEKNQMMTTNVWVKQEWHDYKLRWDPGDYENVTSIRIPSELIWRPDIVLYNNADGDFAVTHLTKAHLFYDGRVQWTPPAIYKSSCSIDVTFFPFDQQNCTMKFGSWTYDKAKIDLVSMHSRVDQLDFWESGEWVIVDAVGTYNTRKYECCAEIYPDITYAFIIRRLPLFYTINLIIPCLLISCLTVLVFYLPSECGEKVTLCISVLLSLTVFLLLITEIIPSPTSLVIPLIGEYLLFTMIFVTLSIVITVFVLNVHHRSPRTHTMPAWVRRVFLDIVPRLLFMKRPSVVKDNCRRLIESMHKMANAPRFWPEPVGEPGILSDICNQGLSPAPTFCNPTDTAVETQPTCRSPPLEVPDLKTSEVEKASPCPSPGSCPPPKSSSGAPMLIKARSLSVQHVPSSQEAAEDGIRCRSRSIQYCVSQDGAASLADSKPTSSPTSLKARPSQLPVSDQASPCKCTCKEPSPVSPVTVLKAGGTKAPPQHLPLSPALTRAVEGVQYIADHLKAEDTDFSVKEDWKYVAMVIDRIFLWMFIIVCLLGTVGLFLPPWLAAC
T2 sequence (P12390 whole entry): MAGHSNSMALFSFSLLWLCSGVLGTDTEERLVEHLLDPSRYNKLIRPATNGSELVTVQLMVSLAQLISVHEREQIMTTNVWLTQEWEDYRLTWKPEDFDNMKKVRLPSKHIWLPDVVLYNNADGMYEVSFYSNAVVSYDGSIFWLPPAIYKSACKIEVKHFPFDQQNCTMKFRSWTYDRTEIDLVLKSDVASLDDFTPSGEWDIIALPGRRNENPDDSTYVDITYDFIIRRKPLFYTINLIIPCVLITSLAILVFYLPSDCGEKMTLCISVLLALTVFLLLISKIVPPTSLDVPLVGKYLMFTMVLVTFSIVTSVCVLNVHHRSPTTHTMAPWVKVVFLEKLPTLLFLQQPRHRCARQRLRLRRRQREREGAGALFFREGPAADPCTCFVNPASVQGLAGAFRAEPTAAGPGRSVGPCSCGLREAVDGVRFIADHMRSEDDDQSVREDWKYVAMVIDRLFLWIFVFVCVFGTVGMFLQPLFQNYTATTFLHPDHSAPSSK

[4] = target: T2, Neuronal acetylcholine receptor; alpha4/beta2; assay: Inhibitory activity against nAChR mediated nicotine-evoked [3H]DA overflow using rat striatal slices; type: functional
[5] = target: T2, Neuronal acetylcholine receptor; alpha4/beta2; assay: Inhibition of [3H]nicotine binding to Nicotinic acetylcholine receptor alpha4-beta2 in rat brain; type: tissue-based
Rattus norvegicus = species on record: Rattus norvegicus; assay: Inhibitory activity against nAChR mediated nicotine-evoked [3H]DA overflow using rat striatal slices; Not active; type: functional, organism-based

T1 sequence (Q05941 whole entry): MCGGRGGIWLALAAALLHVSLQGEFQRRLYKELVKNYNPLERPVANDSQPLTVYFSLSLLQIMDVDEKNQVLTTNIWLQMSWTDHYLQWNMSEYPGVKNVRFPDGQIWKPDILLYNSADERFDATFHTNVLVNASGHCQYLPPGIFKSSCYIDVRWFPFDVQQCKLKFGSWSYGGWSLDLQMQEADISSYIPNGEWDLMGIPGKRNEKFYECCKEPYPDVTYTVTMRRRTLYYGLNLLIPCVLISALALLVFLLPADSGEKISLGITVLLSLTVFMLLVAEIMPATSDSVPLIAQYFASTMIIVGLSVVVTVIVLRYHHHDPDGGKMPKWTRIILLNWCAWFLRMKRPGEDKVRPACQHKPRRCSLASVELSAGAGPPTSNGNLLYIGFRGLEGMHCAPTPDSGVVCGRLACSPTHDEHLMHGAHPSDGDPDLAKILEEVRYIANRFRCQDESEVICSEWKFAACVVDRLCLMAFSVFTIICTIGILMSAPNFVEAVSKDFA

**Q.** With `CCCCCCCC[n+]1cccc([C@@H]2CCCN2C)c1` as the molecule, how does the Ki [1] read?
**A.** 12000 nM

**Q.** `CCCCCCCCCCCC[n+]1ccc2c(c1)[C@H]1[C@@H](CC2)CCN1C.[I-]` was tested. Which Ki [2] did it give?
**A.** Not Active

**Q.** What about the Ki [3] of the same molecule?
**A.** Not Active

**Q.** And the IC50 [4]?
**A.** 220 nM

**Q.** Which Ki [2] does the source give for `CCCCCCCC[n+]1ccc2c(c1)[C@H]1[C@@H](CC2)CCN1C.[I-]` here?
**A.** Not Active

**Q.** What about the Ki [3] of the same molecule?
**A.** Not Active

**Q.** What about the IC50 [4] of the same molecule?
**A.** 80 nM

**Q.** Which Ki [2] does the source give for `CCCCCCCC[n+]1cccc2c1CC[C@@H]1CCN(C)[C@H]21.[I-]` here?
**A.** Not Active

**Q.** What about the Ki [3] of the same molecule?
**A.** Not Active

**Q.** And the IC50 [4]?
**A.** 40 nM

**Q.** `CCCCCCCCCCC[n+]1cccc2c1CC[C@@H]1CCN(C)[C@H]21.[I-]` was tested. Which Ki [2] did it give?
**A.** Not Active

**Q.** And the Ki [3]?
**A.** Not Active

**Q.** And the IC50 [4]?
**A.** 40 nM

**Q.** Which results are given for `CCCCCCCCCC[n+]1cccc2c1CC[C@@H]1CCN(C)[C@H]21.[I-]`?
**A.** Ki [2]: Not Active; Ki [3]: Not Active; IC50 [4]: 30 nM

**Q.** Which results are given for `CCCCCCCCC[n+]1ccc2c(c1)[C@H]1[C@@H](CC2)CCN1C.[I-]`?
**A.** Ki [2]: Not Active; Ki [3]: Not Active; IC50 [4]: 660 nM

**Q.** What does the source list for `CCCCCCCCCCC[n+]1ccc2c(c1)[C@H]1[C@@H](CC2)CCN1C.[I-]`?
**A.** Ki [2]: Not Active; Ki [3]: Not Active; IC50 [4]: 40 nM

**Q.** How did the Ki [2] turn out when `CCCCCCCCCCCC[n+]1ccccc1.[I-]` was run?
**A.** Not Active

**Q.** What about the Ki [3] of the same molecule?
**A.** Not Active

**Q.** What about the IC50 [4] of the same molecule?
**A.** 260 nM

**Q.** `CCCCCCCCC[n+]1cccc2c1CC[C@@H]1CCN(C)[C@H]21.[I-]` was tested. Which Ki [2] did it give?
**A.** Not Active

**Q.** What about the Ki [3] of the same molecule?
**A.** Not Active

**Q.** And the IC50 [4]?
**A.** 310 nM

**Q.** With `c1cc[n+](CCCCCCCCCCCCCC[n+]2ccccc2)cc1` as the molecule, how does the Ki [5] read?
**A.** 9150 nM

**Q.** What about the IC50 [4] of the same molecule?
**A.** 1000 nM

**Q.** And the Ki [1]?
**A.** 33000 nM

**Q.** With `CN1CCC[C@H]1c1ccc[n+](CCCCCCCCCCCCCC[n+]2cccc([C@@H]3CCCN3C)c2)c1.[Br-].[Br-]` as the molecule, how does the Ki [5] read?
**A.** 1950 nM

**Q.** What about the Ki [2] of the same molecule?
**A.** Not Active

**Q.** And the IC50 [4]?
**A.** 170 nM

**Q.** How did the Ki [2] turn out when `CCCCCCCCCCCCCCCCCCCC[n+]1ccccc1.[Br-]` was run?
**A.** Not Active

**Q.** What about the Ki [3] of the same molecule?
**A.** Not Active

**Q.** What about the IC50 [4] of the same molecule?
**A.** 120 nM

**Q.** With `CCCCCCCCCCCC[n+]1cccc2c1CC[C@@H]1CCN(C)[C@H]21.[I-]` as the molecule, how does the IC50 (Rattus norvegicus) read?
**A.** Not Active

**Q.** And the Ki [2]?
**A.** Not Active

**Q.** What about the Ki [3] of the same molecule?
**A.** Not Active

**Q.** Which Ki [5] does the source give for `CCCCCCCCCC[n+]1ccccc1.[I-]` here?
**A.** 17000 nM

**Q.** And the Ki [2]?
**A.** Not Active

**Q.** And the IC50 [4]?
**A.** 130 nM

**Q.** How did the Ki [5] turn out when `CCCCCCCCCCCCCCC[n+]1ccccc1.[Br-]` was run?
**A.** 38000 nM

**Q.** What about the Ki [2] of the same molecule?
**A.** Not Active

**Q.** What about the IC50 [4] of the same molecule?
**A.** 320 nM

**Q.** For `CCCCCCCCCCCC[n+]1cccc([C@@H]2CCCN2C)c1.[I-]`, which Ki [5] is on record?
**A.** 140 nM

**Q.** What about the Ki [2] of the same molecule?
**A.** Not Active

**Q.** What about the IC50 [4] of the same molecule?
**A.** 9 nM

**Q.** Which Ki [5] does the source give for `CCCCCCCCCC[n+]1cccc([C@@H]2CCCN2C)c1.[I-]` here?
**A.** 90 nM

**Q.** And the IC50 (Rattus norvegicus)?
**A.** Not Active

**Q.** What about the Ki [2] of the same molecule?
**A.** Not Active

**Q.** Which results are given for `CCCCCCCCCC[n+]1ccc2c(c1)[C@H]1[C@@H](CC2)CCN1C.[I-]`?
**A.** Ki [2]: Not Active; Ki [3]: Not Active; IC50 [4]: 580 nM
